# Article PMC12598805, “Crystal Structure–Activity Relationship of Some MeO Phenylacrylonitriles: Dual Antimicrobial–Cytotoxic Effects and in Silico Perspectives” (ChemistryOpen, 2025)
# pIC50: −log10 of the molar value. Read-outs that look alike come from different tables or passages of the source.
# Assays:
# [1] = Cytotoxicity on healthy cells, CCK8 cell viability; type: cell-based, mouse; conditions: mouse, L929 mouse fibroblast cells, read-out: Cytotoxic activity IC50
# Source text: (§1) We investigated the cytotoxic effects of acrylonitrile derivatives 2(a–c) on human lung carcinoma (A549, CCL‐185) cells purchased from American Culture Collection and human breast carcinoma (MCF‐7) cells purchased from Republic of Turkey Ministry of Agriculture and Forestry Şap Institute, (HUKUK, 00092502), In addition, mouse fibroblast cells (L929, CCL‐1) purchased from American Culture Collection were used to observe the effects of the compounds on healthy cells. In 25 T Flask, A549 cells were grown in dulbecco's modified eagle's medium, MCF‐7, and L929 cells were grown in eagle's minimum essential medium (EMEM), 10% fetal bovine serum and 1% Penicillin‐Streptomycin at 37 °C in a 5% CO2 and 100% humidified incubator. Cell proliferation was checked every day. Cells were taken into the experiment when the cell density reached 70% to 80%. (See Supporting Information for experimental preparation of biological studies).
# (§2) The compounds 2a, 2b, and 2c were dissolved in 99.8% Dimethyl sulfoxide (DMSO) respectively, as
# (§3) 10 mM main stock. To prepare the doses of acrylonitrile compounds used in the experiment to be
# (§4) applied to the cells, five different concentrations of 31.25; 62.5; 125; 250 and 500 μM were prepared
# (§5) by diluting the main stock solutions (10 mM) with the medium selected according to the cells. 5-
# (§6) Fluorouracil (5-FU) was selected as a positive control in the study. After the 5-FU main stock solution
# (§7) was dissolved with DMSO to be 10 mM, the concentrations to be used were diluted with the selected
# (§8) media and made ready for the experimental plan. The concentrations used for 5-FU were prepared in
# (§9) the same doses used for acrylonitrile derivatives. For the negative control group, groups containing
# (§10) only media and no substance were used. Prepared acrylonitrile compounds and 5-FU concentrations
# (§11) were added to the wells in three replicates for each dose, and their effects on cell viability at 24 and 48
# (§12) Trypan blue solution (Gibco, 1525061) was used to distinguish between living and dead cells in the
# (§13) study. Trypan blue passes uncontrollably through the membrane of dead cells that have lost their cell
# (§14) membrane integrity and stains the cell blue. Living cells, on the other hand, are not stained because
# (§15) Live cell counts were performed using trypan blue using a
# (§16) cell counter (Logos Luna II).
# (§17) In order to detach the cells adhering to the flasks from the bottom, 500 μL of 0.25% Trypsin-EDTA
# (§18) (Gibco, 15400054) solution was added and treated for five minutes.
# (§19) detach from the bottom under an inverted microscope (Zeiss Primovert, Germany), medium containing
# (§20) 10% FBS was added. After centrifugation at 300 g for 5 minutes and discarding the medium, 1 mL of
# (§21) medium was added and the cells were seeded into 96-well culture dishes as 1x10^4 cells in 100 μL per
# (§22) Cell Counting Kit 8 (CCK8; Medchem, 146436) was used to determine cell viability. After adding 20 μL
# (§23) of CCK8 solution to each well in the dark, 96-well culture dishes were wrapped with aluminum foil and
# (§24) kept in a CO2 incubator at 37 °C for 2 hr. Then, it was automatically read with a microplate reader
# (§25) (Chromate) at 450 and 630 nm wavelengths. The following formula was used to determine cell
# (§26) % Viability = (Sample Well−Blank) (Negative Control−Blank)×100 (1)
# (§27) The half-maximal inhibitory concentration (IC50) was calculated as 50% cell death causing dose
# (§28) compared to the control group. All data are given as the mean percent fraction of control ± SEM.
# (§29) Statistical analysis was done by one-way analysis of variance (ANOVA), followed by Tukey’s multiple
# (§30) comparison tests. IBM SPSS Statistics 22 was used to utilize statistical analysis. […]
# [2] = test system: mouse fibroblast cells (L929, CCL‐1); test: Cytotoxicity on healthy cells, CCK8 cell viability; type: cell-based
# Source text: as §1, §2, §3, §4, §5, §6, §7, §8, §9, §10, §11, §12, §13, §14, §15, §16, §17, §18, §19, §20, §21, §22, §23, §24, §25, §26, §27, §28, §29, §30
# [3] = test system: human breast carcinoma (MCF‐7) cells; test: Cytotoxicity, CCK8 cell viability; type: cell-based; conditions: for pIC50: Homo sapiens, MCF7, read-out: Cytotoxic activity IC50
# Source text: as §1, §2, §3, §4, §5, §6, §7, §8, §9, §10, §11, §12, §13, §14, §15, §16, §17, §18, §19, §20, §21, §22, §23, §24, §25, §26, §27, §28, §29, §30
# [4] = test system: human lung carcinoma (A549, CCL‐185) cells; test: Cytotoxicity, CCK8 cell viability; type: cell-based; conditions: for pIC50: Homo sapiens, read-out: Cytotoxic activity IC50
# Source text: as §1, §2, §3, §4, §5, §6, §7, §8, §9, §10, §11, §12, §13, §14, §15, §16, §17, §18, §19, §20, §21, §22, §23, §24, §25, §26, §27, §28, §29, §30
smiles,measurement,setting,value
"O=c1[nH]cc(F)c(=O)[nH]1 [5‐FU, 5‐Fluorouracil, reference compound]",IC50 at 24 h,"[1]; L929, 24 h",109 µM
same,IC50 at 48 h,"[1]; L929, 48 h",33 µM
same,decrease in cell viability,"[2]; L929, 24 h, 31.25 μM",45%
same,decrease in cell viability,"[2]; L929, 24 h, 62.5 μM",45%
same,decrease in cell viability,"[2]; L929, 24 h, 125 μM",51%
same,decrease in cell viability,"[2]; L929, 24 h, 250 μM",62%
same,decrease in cell viability,"[2]; L929, 24 h, 500 μM",93%
same,decrease in cell viability,"[2]; L929, 48 h, 31.25 μM",50%
same,decrease in cell viability,"[2]; L929, 48 h, 62.5 μM",64%
same,decrease in cell viability,"[2]; L929, 48 h, 125 μM",68%
same,decrease in cell viability,"[2]; L929, 48 h, 250 μM",80%
same,decrease in cell viability,"[2]; L929, 48 h, 500 μM",93%
same,pIC50,"[3]; MCF‐7, 24 h",3.60
same,pIC50,"[3]; MCF‐7, 48 h",3.99
same,decrease in cell viability,"[3]; MCF‐7, 24 h, 31.25 μM",23%
same,decrease in cell viability,"[3]; MCF‐7, 24 h, 62.5 μM",23%
same,decrease in cell viability,"[3]; MCF‐7, 24 h, 125 μM",34%
same,decrease in cell viability,"[3]; MCF‐7, 24 h, 250 μM",50%
same,decrease in cell viability,"[3]; MCF‐7, 24 h, 500 μM",76%
same,decrease in cell viability,"[3]; MCF‐7, 48 h, 31.25 μM",46%
same,decrease in cell viability,"[3]; MCF‐7, 48 h, 62.5 μM",47%
same,decrease in cell viability,"[3]; MCF‐7, 48 h, 125 μM",52%
same,decrease in cell viability,"[3]; MCF‐7, 48 h, 250 μM",74%
same,decrease in cell viability,"[3]; MCF‐7, 48 h, 500 μM",95%
same,suppressive effect on cell proliferation / viability,"[4]; A549, 24 h, 31.25 to 500 μM",did not show any suppressive effect
same,decrease in cell viability,"[4]; A549, 48 h, 250 μM",17%
same,decrease in cell viability,"[4]; A549, 48 h, 500 μM",77%
same,pIC50,"[4]; A549, 24 h",< 3.30
same,pIC50,"[4]; A549, 48 h",3.41
